Test results as given in patent US20100305173A1, “HYDROXYETHYLAMINO SULFONAMIDE DERIVATIVES” (CoNCERT Pharmaceuticals, Inc., priority 2009, published 2010).
Read-outs that look alike come from different tables or passages of the source.

Test: Metabolic stability of test compounds in human liver microsomes
Format: in vitro ADME
Conditions: for half-life: human, liver microsomes, pH 7.4, half-life in human liver microsomes
Description: Determination of Metabolic Stability of Test Compounds in
Human Liver Microsomes. Human liver microsomes (20 mg/mL) were obtained from Xenotech, LLC (Lenexa, Kans.). β-nicotinamide adenine dinucleotide phosphate, reduced form (NADPH), magnesium chloride (MgCl2), and dimethyl sulfoxide (DMSO) were purchased from Sigma-Aldrich.
7.5 mM stock solutions of test compounds were prepared in DMSO. […] The diluted microsomes (375 μL) were added to wells of a 96-well deep-well polypropylene plate in triplicate. […] Reactions were initiated by addition of 125 μL of pre-warmed NADPH solution. The final reaction volume was 0.5 mL and contained 0.5 mg/mL human liver microsomes, 0.25-1.0 μM test compound, and 2 mM NADPH in 0.1 M potassium phosphate buffer, pH 7.4, and 3 mM MgCl2. The reaction mixtures were incubated at 37° C., and 50 μL aliquots were removed at 0, 5, 10, 20, and 30 minutes and added to shallow-well 96-well plates which contained 50 μL of ice-cold ACN with internal standard to stop the reactions. The plates were stored at 4° C. for 20 minutes after which 100 μL of water was added to the wells of the plate before centrifugation to pellet precipitated proteins. Supernatants were transferred to another 96-well plate and analyzed for amounts of parent compound remaining by LC-MS/MS using an Applied Bio-systems API 4000 mass spectrometer. 7-ethoxycoumarin (1 μM) was used as the positive control substrate.
Data analysis: The in vitro half-lives (tii2s) for test compounds were calculated from the slopes of the linear regression of % parent remaining (ln) vs incubation time relationship using the following formula: […]
Data analysis was performed using Microsoft Excel Software.
FIG. 1, FIG. 2, FIG. 3, Table 2, Table 3 and Table 4 show the results of this experiment.

[1] = Table 4, Expt H, read-out: T1/2 (min) Expt H
[2] = Table 4, Expt I, read-out: T1/2 (min) Expt I
[3] = Table 4, Expt J, read-out: T1/2 (min) Expt J
[4] = Table 4, calculated average of Expt E-J, read-out: T1/2 (min) Average ± SD
[5] = Table 3, Exp C, read-out: T1/2 (min) Exp C
[6] = Table 3, Exp D, read-out: T1/2 (min) Exp D
[7] = Table 3, calculated average of Exp C and D, read-out: T1/2 (min) Average
[8] = Table 4, Expt G, read-out: T1/2 (min) Expt G
[9] = Table 2, Exp A, read-out: T1/2 (min) Exp A
[10] = Table 2, Exp B, read-out: T1/2 (min) Exp B
[11] = Table 2, calculated average of Exp A and B, read-out: T1/2 (min) Average

Compound	half-life [2] [min]	half-life [3] [min]	half-life [4] [min]	half-life [5] [min]	half-life [6] [min]	half-life [7] [min]	half-life [9] [min]	half-life [10] [min]	half-life [11] [min]	further results
[2H]C([2H])([2H])C([2H])(C([2H])([2H])[2H])C([2H])([2H])N(C[C@@H](O)[C@H](Cc1ccccc1)NC(=O)O[C@]1([2H])[C@@H]2CCO[C@@H]2OC1([2H])[2H])S(=O)(=O)c1ccc2occc2c1 [Compound 106, (3R,3aS,6aR)-hexahydrofuro[2,3-b]furan-3-yl-((2S,3R)-3-hydroxy-4-(N-isobutylbenzofuran-5-sulfonamido)-1-phenylbutan-2-yl)carbamate-d12]	21.5	46.7	23 ± 5.7	–	–	–	–	–	–	increase in stability over darunavir and brecanavir (human liver microsomes, versus darunavir and brecanavir, in words): very significant increase in stability; half-life (Table 4, Expt E, read-out: T1/2 (min) Expt E): 31.2 min; half-life (Table 4, Expt F, read-out: T1/2 (min) Expt F): 21.2 min; half-life [1]: 18.1 min
[2H]C([2H])([2H])C([2H])(C([2H])([2H])[2H])C([2H])([2H])N(C[C@@H](O)[C@H](Cc1ccccc1)NC(=O)O[C@]1([2H])[C@@H]2CCO[C@@H]2OC1([2H])[2H])S(=O)(=O)c1ccc2ncsc2c1 [Compound 229, (3R,3aS,6aR)-hexahydrofuro[2,3-b]furan-3-yl-((2S,3R)-3-hydroxy-4-(N-isobutylbenzo[d]thiazole-6-sulfonamido)-1-phenylbutan-2-yl)carbamate-d12]	6	5.8	6.2 ± 0.4	8.7	8.6	8.6	–	–	–	half-life [8]: 6.4 min; half-life [1]: 6.7 min
[2H]C([2H])([2H])C([2H])(C([2H])([2H])[2H])C([2H])([2H])N(C[C@@H](O)[C@H](Cc1ccccc1)NC(=O)O[C@]1([2H])[C@@H]2CCO[C@@H]2OC1([2H])[2H])S(=O)(=O)c1ccc(NC(=O)C2CC2)cc1 [Compound 233, (3R,3aS,6aR)-hexahydrofuro[2,3-b]furan-3-yl-((2S,3R)-4-(4-(cyclopropanecarbox-amido)-N-isobutylphenylsulfonamido)-3-hydroxy-1-phenylbutan-2-yl)carbamate-d12]	–	–	–	–	–	–	4.7	2.4	3.5	–
Cc1nc(COc2ccc(C[C@H](NC(=O)O[C@H]3CO[C@H]4OCC[C@H]43)[C@H](O)CN(CC(C)C)S(=O)(=O)c3ccc4c(c3)OCO4)cc2)cs1 [Brecanavir, N-[3-[N-(1,3-Benzodioxol-5-ylsulfonyl)-N-isobutylamino]-2(R)-hydroxy-1-(S)-[4-(2-methylthiazol-4-ylmethoxy)benzyl]propyl]carbamic acid (3R,3aS,6aR)-perhydrofuro[2,3-b]furan-3-yl ester, reference compound]	2	2	2	–	–	–	–	–	–	–
[2H]C([2H])([2H])C([2H])(C([2H])([2H])[2H])C([2H])([2H])N(C[C@@H](O)[C@H](Cc1ccccc1)NC(=O)O[C@]1([2H])[C@@H]2CCO[C@@H]2OC1([2H])[2H])S(=O)(=O)c1ccc(NC(C)=O)cc1 [Compound 227, (3R,3aS,6aR)-hexahydrofuro[2,3-b]furan-3-yl-((2S,3R)-4-(4-acetamido-N-isobutylphenylsulfonamido)-3-hydroxy-1-phenylbutan-2-yl) carbamate-d12]	7.2	7.1	6.3 ± 1	–	–	–	9	4.3	6.6	half-life [8]: 5.7 min; half-life [1]: 5.3 min
[2H]C([2H])([2H])C([2H])(C([2H])([2H])[2H])C([2H])([2H])N(C[C@@H](O)[C@H](Cc1ccccc1)NC(=O)O[C@@]1([2H])C([2H])([2H])O[C@@]2([2H])OC([2H])([2H])C([2H])([2H])[C@]21[2H])S(=O)(=O)c1ccc2ncsc2c1 [Compound 230, (3R,3aS,6aR)-hexahydrofuro[2,3-b]furan-3-yl-((2S,3R)-3-hydroxy-4-(N-isobutylbenzo[d]thiazole-6-sulfonamido)-1-phenylbutan-2-yl)carbamate-d18]	–	–	–	11.7	15.1	13.4	–	–	–	increase in stability over darunavir (human liver microsomes, average of two runs, versus darunavir): 36%; increase in stability over 302, its non-deuterated counterpart (human liver microsomes, versus 302, in words): an even greater increase in stability

More lines, main results first:

half-life [2] [min]	half-life [3] [min]	half-life [4] [min]	half-life [5] [min]	half-life [6] [min]	half-life [7] [min]	half-life [9] [min]	half-life [10] [min]	half-life [11] [min]	Compound	further results
5.6	6.4	6	8.2	8.7	8.5	–	–	–	CC(C)CN(C[C@@H](O)[C@H](Cc1ccccc1)NC(=O)O[C@H]1CO[C@H]2OCC[C@H]21)S(=O)(=O)c1ccc2ncsc2c1 [Compound 302, reference compound]	–
–	–	–	8.3	7.9	8.1	–	–	–	[2H]C([2H])([2H])C([2H])(C([2H])([2H])[2H])C([2H])([2H])N(C[C@@H](O)[C@H](Cc1ccccc1)NC(=O)O[C@]1([2H])[C@H]2[C@H](OC([2H])([2H])C2([2H])[2H])OC1([2H])[2H])S(=O)(=O)c1ccc2ncsc2c1 [Compound 237, (3R,3aS,6aR)-hexahydrofuro[2,3-b]furan-3-yl-((2S,3R)-3-hydroxy-4-(N-isobutylbenzo[d]thiazole-6-sulfonamido)-1-phenylbutan-2-yl)carbamate-d16]	–
21.1	19.9	20.5	–	–	–	–	–	–	CC(C)CN(C[C@@H](O)[C@H](Cc1ccccc1)NC(=O)O[C@H]1CO[C@H]2OCC[C@H]21)S(=O)(=O)c1ccc2occc2c1 [Compound 303, reference compound]	–
–	–	–	–	–	–	1.9	1.5	1.7	CCOC(=O)NCc1coc2ccc(S(=O)(=O)N(CC(C)C)C[C@@H](O)[C@H](Cc3ccccc3)NC(=O)O[C@H]3CO[C@H]4OCC[C@H]43)cc12 [Compound 301, reference compound]	–
–	–	–	–	–	–	7.1	3.6	5.4	[2H]C([2H])(N(C[C@@H](O)[C@H](Cc1ccccc1)NC(=O)O[C@]1([2H])[C@@H]2CCO[C@@H]2OC1([2H])[2H])S(=O)(=O)c1ccc(NC(C)=O)cc1)C1([2H])C([2H])([2H])C([2H])([2H])C([2H])([2H])C1([2H])[2H] [Compound 236, (3R,3aS,6aR)-hexahydrofuro[2,3-b]furan-3-yl-((2S,3R)-4-(4-acetamido-N-(cyclopen-tylmethyl)phenylsulfonamido)-3-hydroxy-1-phenylbutan-2-yl)carbamate-d14]	–
–	–	–	–	–	–	2.4	1.5	2	[2H]C([2H])([2H])C([2H])(C([2H])([2H])[2H])C([2H])([2H])N(C[C@@H](O)[C@H](Cc1ccccc1)NC(=O)O[C@]1([2H])[C@@H]2CCO[C@@H]2OC1([2H])[2H])S(=O)(=O)c1ccc2occ(CNC(=O)OCC)c2c1 [Compound 235, ((5-(N-((2R,3S)-3-(((((3R,3aS,6aR)-hexahydrofuro[2,3-b]furan-3-yl)oxy)carbonyl)amino)-2-hydroxy-4-phenylbutyl)-isobutylsulfamoyl)benzofuran-3-yl)methyl)carbamic acid ethyl ester-d12]	–
